Test results from US20120315290A1, “INHIBITORS OF LL-37 MEDIATED IMMUNE REACTIVITY TO SELF NUCLEIC ACIDS” (BOARD OF REGENTS, THE UNIVERSITY OF TEXAS SYSTEM, priority 2006, published 2012).
“Also recorded” adds a separate entry of the source.

Tests used:
[1] = test system: plasmacytoid dendritic cells (pDC); test: IFN-α and cytokine production by purified human pDC (ELISA of supernatants); type: cell-based
Excerpt: PDC from healthy donors were purified from freshly collected buffy coats. Briefly, PBMC were isolated by Ficoll-Hypaque density gradient centrifugation (GE Healthcare, Piscatway, N.J.) followed by positive sorting using anti-BDCA4-conjugated magnetic microbeads (Miltenyi Biotec, Auburn, Calif.). The recovered cells were stained with PE-Cy5-conjugated anti-CD4, APC-conjugated CD11c, and a cocktail of FITC-conjugated anti-CD3, anti-CD14, anti-CD16, anti-CD15, anti-CD20 and anti-CD56 (Lineage-FITC) (BD Pharmingen, San Diego, Calif.). The CD4+CD11c-Lin- (pDC precursors) were isolated by cell sorting. Purity was routinely >99%. PDC (5-10×10^4/well) were cultured in 96-well round-bottom plates in RPMI 1640 (GIBCO, Carlsbad, Calif.) supplemented with 10% FCS (Atlanta Biologicals, Lawrenceville, Ga.). Where indicated, pDC were stimulated with CpGA (1 μM), CpGB (1 μM), R837 (10 ug/ml), IRS (4 uM), non-CpG sequence (4 uM), and different concentrations of LL-37 and of human genomic DNA. To prepare LL-37.DNA complexes, CpGB, huDNA, non-CpG and LL-37 were mixed by inversion and incubated for 30 min at room temperature before being added to the cells.
Supernatants samples were taken after 18-24 h after addition of the stimuli. Human IFN-α was measured using a human IFN-α ELISA kit (PBL Biomedical Laboratories, New Brunswick, N.J.) according to the company's instructions. IL-6 and TNF-α were detected using a kit for human IL6 and TNF-α (R&D Systems), respectively.

[2] = test system: B16-OVA tumor; test: Vaccination of mice bearing established B16-OVA melanoma, tumor size; type: in vivo, C57BL/6 mice; conditions: mixed with irradiated B16-OVA
Procedure: Mice bearing a 7-d subcutaneous B16 melanoma transfected with a gene encoding OVA (B16-OVA) were vaccinated subcutaneously with 1) LL-37 alone; irradiated B16-OVA tumor (iB16-OVA); irradiated B16-OVA tumor mixed with […] CpG-2216 (iB16-OVA+CpG); irradiated B16-OVA tumor with […] LL-37 (iB16-OVA+LL-37). Tumor size was monitored by caliper every second day. Data represent mean of 4 mice per group.
We also performed vaccine studies using the B16 tumor model of melanoma, B16 is a highly aggressive tumor with low immunogenicity. B16 tumor cells can be transfected with ovalbumin (OVA) to provide an immunogen that allows easy tracking of the anti-tumor immune response. 3×10^5 B16-OVA tumor cells were implanted subcutaneously in the flank of C57BL/6 mice and allowed to grow. Seven days later mice were treated with a single subcutaneous injection of LL-37 mixed with irradiated B16-OVA tumor cells. Control injections included LL-37 alone, irradiated B16-OVA alone, or irradiated B16-OVA mixed with the synthetic TLR9 agonist CpG. A detailed method on the generation of these vaccines is provided in D2.1. Tumor size was monitored with a caliper and volumes estimated using the formula […]. The experiment was stopped 10 days after injection because all mice in the control group had died or their tumor had reached 20 mm in their maximal diameter.

[3] = test system: B16 tumors; test: Intratumoral or intramuscular injection, cytokine mRNA by real-time PCR; type: in vivo, C57BL/6 mice
Procedure: […] of LL-37, CpG-A or PBS alone was injected into B16 tumors grown for 7 days in Flt-L treated mice. Tumors were harvested after 6, 24, 48 and 72 h, total RNA was extracted and expression of indicated cytokines was measured by real-time PGR. Data represent expression relative to GAPDH RNA. Some mice were injected with […] of LL-37 for 3 times (t0, t24 and t48) and tumor was harvested at 72 h for RNA expression analysis.
LL-37, CpG, or saline (PBS) was injected into B16 tumors grown for 7 days in Flt-L treated mice. Tumors were harvested after 6, 24, 48 and 72 h, total RNA was extracted and expression of indicated cytokines was measured by real-time PGR. Data represent expression relative to GAPDH RNA. Data is representative of 5 mice.
[…] of LL-37 were injected into 7d-established B16 skin tumors and muscle tissue of the same mice. After 6 h tumor and muscle tissue were collected for RT-PCR analysis of IFN-a2 mRNA expression. Data represent expression relative to GAPDH RNA
In another set of experiments, 100 μg of LL-37, CpG-A or PBS alone was injected into B16 tumors grown for 7 days in Flt-L treated mice. Tumors were harvested after 6, 24, 48 and 72 h, total RNA was extracted and expression of indicated cytokines was measured by real-time PCR. […] Some mice were injected with 100 μg of LL-37 for 3 times (t0, t24 and t48) and tumor was harvested at 72 h or RNA expression analysis.
Intratumoral injection of LL-37 into native unmodified B16 melanoma induces potent type I IFN expression. 3×10^5 native B16 melanoma cells were inoculated into C57BL/6 mice. After 7 days, tumors were injected with 100 μg of LL-37, 40 μg CpG-2216 (CpG-A), or saline (PBS). Because LL-37-DNA binding (which will occur in the tumor) is optimal at a 3:1-5:1 ratio, we injected approximately 3 times more LL-37 than CpG-DNA. Tumors were harvested at 6 h, 24 h, 48 h, and 72 h after injection and total RNA was isolated and processed. Expression of IFN-α2 mRNA was measured by real-time PCR and normalized for expression of GAPDH mRNA.
LL-37 can induce type I IFN expression when injected into tumors but not into healthy tissue. Because LL-37 requires the presence of self-DNA released by dying cells to induce pDC activation to produce type I IFN, we next asked whether LL-37 could selectively induce type I IFN expression in tumors (containing a high degree of cells death) and not in healthy tissue. To address this question we injected LL-37 (100 μg) into subcutaneously implanted B16 tumors as well as healthy muscle tissue. 6 h after injection, tissues were collected and IFN-α2 mRNA expression was measured by real-time PCR, as described in C12.

## LLGDFFRKSKEKIGKEFKRIVQRIKDFLRNLVPRTES [LL-37]
[1]
  IFN-α in pDC stimulated with non-CpG-ODN sequences plus LL-37: induce significant levels of IFN-α
  IFN-α production by pDC stimulated with nucleic acid alone or combined with LL-37, as labelled: converts genomic DNA of human and bacterial origin into potent IFN-α inducers
[1]; LL-37 10 μM
  IL-6 production by pDC: only induced IFN-α but not IL-6 or TNF-α
  TNF-α production by pDC: only induced IFN-α but not IL-6 or TNF-α
[1]; LL-37 added to phosphodiesteric or phosphothiorate CpG-B
  IFN-α by pDC relative to phosphothiorate CpG-B alone: approximately 10 fold
[1]; pDC cultured with LL-37, 10% serum in culture medium, n=10
  IFN-α produced by pDC (mean): 950 pg/ml
[1]; pDC cultured with LL-37, n=10
  IFN-α produced by pDC (range): 200-4000 pg/ml
[2]
  Adjuvant potency compared to CpGs (CpG-2216): more potent than CpGs
[3]; 100 μg LL-37 vs 40 μg CpG-2216
  IFN-α2 mRNA expression in tumor compared to CpG-A: more potent then the expression induced by CpG-A
[3]; 100 μg injected, 6 h
  IFN-α2 mRNA expression in healthy muscle tissue: not LL-37-injected healthy muscle tissue
[3]; 100 μg intratumoral
  IFN-α2 mRNA expression in B16 tumor: induced potent IFN-α2 mRNA expression; also recorded: IFN-α2 mRNA expression only in LL-37-injected tumors
[3]; 100 μg intratumoral, Flt-L treated mice, 6-72 h
  Expression of pro-inflammatory and T-cell-derived cytokines in tumor: induces expression of pro-inflammatory and T-cell-derived cytokines
